The record followed here is PubChem BioAssay (NCI).

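Growth conditions: 96-well plates. Treatment: test compound, 48 hours, 5 concentrations. Analysis: linear interpolation between bracketing concentrations; unreached endpoints set to highest concentration. TGI is the concentration that stops growth completely.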 Where a SMILES comes first, the peptide text is derived from it. The star is where a group is joined. Boc = CC(C)(C)OC(=O)*

Among the test systems are SN12C renal; COLO 205 colon; SR leukemia; UACC-62 melanoma; T-47D breast; SK-MEL-28 melanoma; OVCAR-4 ovarian; CAKI-1 renal; RXF 393 renal; NCI-H522 lung.
What all share (assay): NCI anticancer screen, dose series, 48 h

For the compound `O=[N+]([O-])C1CC/C(=N/O)c2nonc21` (configuration not stated), the TGI with SN12C renal, in the test on COLO 205 colon, in the test with SR leukemia, in the test on UACC-62 melanoma, with T-47D breast and in the test with SK-MEL-28 melanoma was greater than 10 µM each time. Further, the TGI in the test with OVCAR-4 ovarian, in the test on CAKI-1 renal and with RXF 393 renal was greater than 10 µM throughout.

With `CC1(C)N=C(C(N)=O)c2ncn(N)c2N1`, the TGI in the test with SN12C renal, with COLO 205 colon, in the test on SR leukemia, in the test on UACC-62 melanoma, in the test with NCI-H522 lung and in the test with T-47D breast was greater than 100 µM throughout. Besides, the TGI in the test with SK-MEL-28 melanoma, in the test with OVCAR-4 ovarian, in the test with CAKI-1 renal and with RXF 393 renal was greater than 100 µM throughout.

Regarding `CCCCc1ccc(Nc2nc3c(ncn3C3CC(O)C(CN=[N+]=[N-])O3)c(=O)[nH]2)cc1` (configuration not stated), the TGI in the test on SN12C renal, with COLO 205 colon, in the test with SR leukemia, in the test with UACC-62 melanoma, with NCI-H522 lung and in the test on T-47D breast was greater than 100 µM throughout. For the same compound, the TGI in the test with SK-MEL-28 melanoma, in the test with OVCAR-4 ovarian, with CAKI-1 renal and in the test with RXF 393 renal was greater than 100 µM each time.

As for `CCCCCCCCOC1C(O)C(O)C(O)C(O)C12CO2` (configuration not stated), the TGI with SN12C renal, with COLO 205 colon, with SR leukemia, in the test on UACC-62 melanoma, in the test with NCI-H522 lung and in the test with T-47D breast was greater than 100 µM in each case. Moreover, the TGI in the test on SK-MEL-28 melanoma, in the test with CAKI-1 renal and in the test on RXF 393 renal was greater than 100 µM each time.

For the compound `CCCSc1ccc2[nH]c(N3C(=O)/C(=C/c4ccco4)N=C3c3ccccc3)cc2c1`, the TGI was greater than 50 µM in the test on SN12C renal; 32.8 µM with COLO 205 colon; greater than 50 µM in the test on SR leukemia; greater than 50 µM in the test on UACC-62 melanoma; 37.8 µM with NCI-H522 lung; greater than 50 µM in the test on T-47D breast. Also, the TGI in the test with SK-MEL-28 melanoma, in the test on CAKI-1 renal and with RXF 393 renal was greater than 50 µM in each case.

Regarding `COC(=O)C1C/C(=C/N(C)C)C(=S)N1` (configuration not stated), the TGI with COLO 205 colon, in the test with SR leukemia, with UACC-62 melanoma, in the test on NCI-H522 lung, in the test on T-47D breast and in the test on SK-MEL-28 melanoma was greater than 100 µM throughout. The TGI in the test with OVCAR-4 ovarian, with CAKI-1 renal and in the test with RXF 393 renal was greater than 100 µM each time.

For the compound `CCC(CON(C)c1ccccc1)(SC)SC`, the TGI with SN12C renal, in the test on COLO 205 colon, with SR leukemia, in the test on UACC-62 melanoma, in the test on NCI-H522 lung and with T-47D breast was greater than 100 µM throughout. Besides, the TGI in the test on SK-MEL-28 melanoma, with OVCAR-4 ovarian and in the test with CAKI-1 renal was greater than 100 µM throughout.

Regarding `O=C1CC2(c3ccccc3)ON=C(c3ccccc3)N2c2ccccc2N1` (configuration not stated), the TGI with SN12C renal, with COLO 205 colon, in the test with SR leukemia, in the test with UACC-62 melanoma, in the test with NCI-H522 lung and in the test on T-47D breast was greater than 100 µM throughout. Moreover, the TGI in the test with SK-MEL-28 melanoma, with OVCAR-4 ovarian and in the test with RXF 393 renal was greater than 100 µM in each case.

For `CCC12CCCN(Cc3ccccc3)C1c1c([nH]c3ccccc13)C(C(=O)OC)C2` (configuration not stated), the TGI in the test with SN12C renal, with COLO 205 colon, with SR leukemia, in the test with UACC-62 melanoma, with NCI-H522 lung and in the test with T-47D breast was greater than 10 µM throughout. In addition, the TGI in the test on SK-MEL-28 melanoma, with OVCAR-4 ovarian and in the test on CAKI-1 renal was greater than 10 µM throughout.

Consider `O=C(c1ccccc1)N1CCN(C(=S)N(C(=O)c2ccccc2)c2ccccc2)C1=S`, for which the TGI is 12.2 µM in the test on SN12C renal; 13.2 µM in the test on COLO 205 colon; greater than 100 µM in the test on SR leukemia; 11.4 µM in the test with UACC-62 melanoma; 6.9 µM in the test with NCI-H522 lung; greater than 31.9 µM in the test with T-47D breast. In addition, the TGI came out at 9.55 µM in the test with SK-MEL-28 melanoma, 10.9 µM with OVCAR-4 ovarian and 7.5 µM in the test on CAKI-1 renal.

Take `BrCCCCCOc1ccc(-c2c3ccccc3c(-c3ccc(OCCCCCBr)cc3)c3ccccc23)cc1`: the TGI with SN12C renal, in the test with COLO 205 colon, with SR leukemia, in the test with UACC-62 melanoma, with T-47D breast and with SK-MEL-28 melanoma was greater than 100 µM in each case. The TGI in the test with OVCAR-4 ovarian, with CAKI-1 renal and in the test with RXF 393 renal was greater than 100 µM each time.

For `COC(=O)C(Cc1c[nH]c2ccccc12)NC(=O)C(Cc1c[nH]c2ccccc12)NC(=O)C(Cc1c[nH]c2ccccc12)NC(=O)C(Cc1c[nH]c2ccccc12)NC(=O)C(Cc1c[nH]c2ccccc12)NC(=O)C(Cc1c[nH]c2ccccc12)NC(=O)OC(C)(C)C` (configuration not stated) (Boc-WWWWWW-OMe; configuration not given here), the TGI with SN12C renal is greater than 100 µM; in the test with SR leukemia, greater than 100 µM; in the test with UACC-62 melanoma, greater than 100 µM; in the test with NCI-H522 lung, greater than 100 µM; in the test on T-47D breast, greater than 100 µM; with SK-MEL-28 melanoma, 31.1 µM. The TGI in the test on OVCAR-4 ovarian and in the test on CAKI-1 renal was greater than 100 µM each time.

As for `COC(=O)/C(=C\Nc1cccc(C)n1)S(=O)(=O)c1ccc(C)cc1`, the TGI with SN12C renal was greater than 100 µM; in the test on COLO 205 colon, 49.9 µM; in the test with SR leukemia, greater than 100 µM; with UACC-62 melanoma, 91.5 µM; with NCI-H522 lung, greater than 100 µM; in the test on T-47D breast, greater than 100 µM. Also, the TGI with SK-MEL-28 melanoma, in the test on OVCAR-4 ovarian and in the test on RXF 393 renal was greater than 100 µM each time.

In the case of `O=C(NCCC1([N+](=O)[O-])CCN(C(=O)c2ccccc2)CC1)c1ccccc1`, the TGI with SN12C renal, in the test with COLO 205 colon, in the test with SR leukemia, with UACC-62 melanoma, in the test with NCI-H522 lung and with T-47D breast was greater than 100 µM throughout. The TGI with OVCAR-4 ovarian, with CAKI-1 renal and in the test with RXF 393 renal was greater than 100 µM each time.
